# Measurements as given in patent US5480899A, “Oxazolidine derivatives and pharmaceutically acceptable salts thereof” (Taiho Pharmaceutical Co., Ltd., priority 1992, dated 1996).
# How the values were obtained:
# [1] = test system: sterol biosynthesis system (rat liver slices); assay: Effects on sterol biosynthesis in rat liver slices ([1-14C] acetic acid incorporation); format: cell-based, male Wistar rat; settings: 37° C., 2 hours, radioactivity of sterol fraction vs control
# Procedure: (§1) Effects on sterol and fatty acid biosynthesis systems obtained from a rat liver slices
# (§2) Pharmacological tests were carried out according to the procedure mentioned below, referring to the following document: Endo, A., Tsujita, Y., Kuroda, M. and Tanzawa, K., Eur. J. Biochem., 77, 31-36 (1977).
# (§3) The liver was extirpated from a male Wistar rat (body weight: about 200 g) immediately after sacrifice by decapitation, and sufficiently perfused with ice-cold Krebs-Ringer bicarbonate buffer solution. The liver slices (100 mg) were added to 1 ml of Krebs-Ringer bicarbonate buffer solution containing [1-^14 C] acetic acid (2 μci/μmol) and one of test compounds adjusted to various concentrations, and the reaction was carried out at 37° C. for 2 hours in 95% O2 -5% CO2 gas mixture. After cooling the reaction mixture, 2 ml of petroleum ether was added thereto to extract the sterol fraction with shaking. The extract was concentrated and 1 ml of 1% digitonin solution was added thereto. After standing, the mixture was centrifuged. The sterol fraction obtained as the sediment was washed several times with an organic solvent and dissolved in 1 ml of acetic acid. Subsequently, radioactivity of the sterol fraction was measured. Then the concentration of the test compound (IC50) was determined at which the radioactivity was inhibited by 50% compared with the radioactivity observed in the control group wherein the test compounds were not used.
# [2] = test system: fatty acid biosynthesis system (rat liver slices); assay: Effects on fatty acid biosynthesis in rat liver slices ([1-14C] acetic acid incorporation); format: cell-based, male Wistar rat; settings: 37° C., 2 hours, radioactivity of fatty acid fraction vs control
# Procedure: as §1, §2, §3
# In a similar manner, the radioactivity of fatty acid fraction was determined which was obtained by treating, with hydrochloric acid, the lower layer of the petroleum ether mentioned in the above procedure.
# [3] = test system: serum lipid (triglyceride and cholesterol); assay: Rate of decrease in serum lipid (triglyceride and cholesterol) in rats after 14-day oral administration; format: in vivo, male Sprague-Dawley rats; settings: 300 mg/kg orally everyday for 14 days; 24 hours after last administration; vs control group (0.5% HPMC)
# Procedure: Male Sprague-Dawley rats (body weight: about 130 g) were preliminarily bred for one week, and divided into groups, each group consisting of five rats. Each of the test compounds was suspended in a 0.5% hydroxy-propylmethylcellulose (HPMC) aqueous solution, and the suspensions were orally administered to the rats at a dose of 300 mg/kg at 9:00 a.m. everyday for 14 days. […] The blood was allowed to stand and centrifuged to obtain serum. Lipid (triglyceride and cholesterol) in the obtained serum was measured by the enzymic method using an autoanalyzer.
# Pharmacological activities of the test compounds were determined as the rate of decrease (%) in serum lipid compared with the control group to which only 0.5% aqueous HPMC solution was administered.
IC50 [1] [µM],IC50 [2] [µM],Compound,Rate of decrease in total cholesterol in serum [3] [%],Rate of decrease in triglyceride in serum [3] [%]
17.4,5.7,O=C(O)/C=C/c1ccc(OCC2CN(c3ccc(Cl)cc3)C(=O)O2)cc1 (stereo not drawn) [Compound 183],,
7.1,33.7,"O=C(O)c1ccc(OCC2COC(=O)N2c2ccccc2)cc1 (stereo not drawn) [Compound 180, 4-(3-phenyl-2-oxooxazolidin-4-yl)methoxybenzoic acid]",,
1.15,1.09,O=C(O)c1ccc(OC[C@@H]2CN(c3ccc(Cl)cc3)C(=O)O2)cc1 [Compound 165],,
4.8,2.7,"Cc1ccc(N2CC(COc3ccc(CO)cc3)OC2=O)cc1 (stereo not drawn) [Compound 175, 4-[3-(4-tolyl)-2-oxooxazolidin-5-yl]methoxybenzyl alcohol]",,
4.8,4,"O=C1OC(COc2ccc(CCCO)cc2)CN1c1ccc(Cl)cc1 (stereo not drawn) [Compound 194, 3-{4-[3-(4-chlorophenyl)-2-oxooxazolidin-5-yl]methoxyphenyl}propyl alcohol]",,
0.84,1.23,COc1ccc(N2C[C@@H](COc3ccc(C(=O)O)cc3)OC2=O)cc1 [Compound 164],,
3.36,1.99,O=C(O)c1ccc(OC[C@H]2CN(c3ccc(Cl)cc3)C(=O)O2)cc1 [Compound 149],,
16.4,3.8,O=C(O)CCc1ccc(OCC2CN(c3ccc(Cl)cc3)C(=O)O2)cc1 (stereo not drawn) [Compound 193],,
8.08,4.78,O=C(O)c1ccc(OC[C@H]2CN(c3ccc(C(F)(F)F)cc3)C(=O)O2)cc1 [Compound 147],,
34.5,9.81,"O=C(O)c1ccc(OCC2CN(c3ccccc3)C(=S)O2)cc1 (stereo not drawn) [Compound 171, 4-(3-phenyl-2-oxazolidinethion-5-yl)methoxybenzoic acid]",,
23.2,7.3,"O=C1OC(COc2ccc(CCCO)cc2)CN1c1ccccc1 (stereo not drawn) [Compound 195, 3-[4-(3-phenyl-2-oxooxazolidin-5-yl)methoxyphenyl]propyl alcohol]",,

# More lines, now with the values behind:
Compound,IC50 [1] [µM],IC50 [2] [µM],Rate of decrease in total cholesterol in serum [3] [%],Rate of decrease in triglyceride in serum [3] [%]
"COc1ccc(N2CC(COc3ccc(C=O)cc3)OC2=O)cc1 (stereo not drawn) [Compound 1, 4-[3-(4-methoxyphenyl)-2-oxooxazolidin-5-yl]methoxybenzaldehyde]",10.2,5.6,,
O=C(O)c1ccc(OCC2CN(c3ccc(Br)cc3)C(=O)O2)cc1 (stereo not drawn) [Compound 93],3.23,1.55,,
O=C(O)c1ccc(OCC2CN(c3ccc(OC(F)(F)F)cc3)C(=O)O2)cc1 (stereo not drawn) [Compound 108],,,50.4,83.0
O=Cc1ccc(OCC2CN(c3ccc(Br)cc3F)C(=O)O2)cc1 (stereo not drawn) [Compound 8],6.4,2.9,,
Cc1ccc(CN2CC(COc3ccc(C(=O)O)cc3)OC2=O)cc1 (stereo not drawn) [Compound 130],29.5,14.8,,
O=C(O)c1ccc(OCC2CN(c3ccc(Cl)cc3Cl)C(=O)O2)cc1 (stereo not drawn) [Compound 98],,,26.8,65.5
O=C(O)c1ccc(OCC2CN(c3ccc(Br)cc3F)C(=O)O2)cc1 (stereo not drawn) [Compound 100],,,32.4,62.9
"O=C(O)c1ccc(OCC2CN(c3ccc([N+](=O)[O-])cc3)C(=O)O2)cc1 (stereo not drawn) [Compound 81, 4-[3-(4-nitrophenyl)-2-oxooxazolidin-5-yl]methoxybenzoic acid]",3.79,1.3,,
Cc1ccc(N2CC(COc3ccc(C(=O)O)cc3)OC2=O)cc1 (stereo not drawn) [Compound 83],5.74,2.89,,
O=C(O)c1ccc(OCC2CN(c3ccc(C(F)(F)F)cc3)C(=O)O2)cc1 (stereo not drawn) [Compound 101],4.8,3.17,,
